Data reported in US20220002309A1, “SSAO INHIBITORS AND USES THEREOF” (Metacrine, Inc., priority 2018, published 2022).

Molecular target: T1, Recombinant Human SSAO/VAP-1/AOC3 (Homo sapiens, UniProt Q16853)
T1 construct: purchased R&D systems 3957-AO
T1 sequence (Q16853 1-763): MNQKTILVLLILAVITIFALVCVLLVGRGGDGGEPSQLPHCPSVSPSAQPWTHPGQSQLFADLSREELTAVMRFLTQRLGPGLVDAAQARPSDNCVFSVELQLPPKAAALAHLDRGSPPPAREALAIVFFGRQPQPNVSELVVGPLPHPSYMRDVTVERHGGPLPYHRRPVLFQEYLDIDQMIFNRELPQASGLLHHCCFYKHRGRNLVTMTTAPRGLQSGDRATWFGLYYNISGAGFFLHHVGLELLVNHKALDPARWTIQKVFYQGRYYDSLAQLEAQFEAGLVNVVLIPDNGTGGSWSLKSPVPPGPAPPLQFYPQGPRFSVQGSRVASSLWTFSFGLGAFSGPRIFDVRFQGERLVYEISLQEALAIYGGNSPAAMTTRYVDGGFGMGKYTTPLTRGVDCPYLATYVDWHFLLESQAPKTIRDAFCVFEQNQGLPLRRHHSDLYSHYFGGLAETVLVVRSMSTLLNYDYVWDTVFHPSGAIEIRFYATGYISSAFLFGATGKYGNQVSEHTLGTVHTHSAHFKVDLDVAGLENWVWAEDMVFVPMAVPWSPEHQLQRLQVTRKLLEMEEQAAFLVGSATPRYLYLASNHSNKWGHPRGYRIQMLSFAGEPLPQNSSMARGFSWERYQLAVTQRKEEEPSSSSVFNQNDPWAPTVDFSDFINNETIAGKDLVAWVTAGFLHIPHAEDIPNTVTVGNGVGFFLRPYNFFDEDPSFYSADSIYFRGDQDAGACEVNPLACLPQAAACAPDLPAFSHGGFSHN
Test: Human Semicarbazide-Sensitive Amine Oxidase (SSAO) Assay
Assay type: biochemical
Conditions: recombinant enzyme; 30 minutes preincubation at 37° C.; benzylamine substrate; Amplex Ultra Red/HRP fluorescence
Method: Example B-1: Human Semicarbazide-Sensitive Amine Oxidase (SSAO) Assay
Compounds were dissolved in DMSO to provide a Concentration Response Curve (CRC; at 500 times the final concentration) over a range of 6-10 dilutions.
Recombinant Human SSAO/VAP-1/AOC3 (R&D systems; Catalog #3957-AO) was used to screen compound potency in vitro, according to previously described methods (J Pharmacol Exp Ther. 2013 November; 347(2):365-74). SSAO enzyme was suspended in 50 mM HEPES buffer to a working concentration of 2.5 μg/ml and 40 μL of this enzyme mixture was then added to each well of a F16 Black Maxisorp 96 well Plate (Nunc, Catalog #475515). Ten microliters of each test compound (at 5 times the final concentration) were added to each well, resulting in a final well volume of 50 μL of the enzyme and inhibitor mixture. The compounds were preincubated with the enzyme for 30 minutes at 37° C., prior to the addition of a 40 μL volume of Amplex Ultra Red (125 uM AUR; Molecular Probes, Catalog #A36006)/Horseradish peroxidase (2.5 U/ml HRP; Sigma-Aldrich Catalog #P8375) oxidase detection reagent containing cytochrome C (7.5 μM; Sigma-Aldrich Catalog #C7752). Cytochrome C was included in the AUR/HRP detection mixture to reduce the background fluorescence that can occur via the spontaneous redox reaction between AUR and HRP. The SSAO enzyme reaction was then initiated by adding 10 μL of the SSAO substrate, benzylamine (Sigma-Aldrich Catalog #B5136), and SSAO activity was measured in kinetic mode over a 30-120 minute sampling period (excit. 544 nm; emit 590 nm; cut off 570 nm; medium gain) to obtain IC50 values for enzyme activity in each treatment well.

COC1(CNC(=O)C23CCC(c4ccc(OC/C(=C/F)CN)cc4)(CC2)CC3)CCCCC1 [Compound 2.102, (E)-4-(4-((2-(aminomethyl)-3-fluoroallyl)oxy)phenyl)-N-((1-methoxycyclohexyl)methyl) bicyclo[2.2.2]octane-1-carboxamide]
IC50: ≤ 10 nM

CO[C@H]1CC[C@H](NC(=O)C23CCC(c4ccc(OC/C(=C/F)CN)cc4)(CC2)CC3)CC1 [Compound 2.104, 4-(4-(((E)-2-(aminomethyl)-3-fluoroallyl)oxy)phenyl)-N-((1r,4r)-4-methoxycyclohexyl)bicyclo[2.2.2] octane-1-carboxamide]
IC50: ≤ 10 nM

NC/C(=C\F)COc1ccc(C23CCC(C(=O)NC4(C(F)(F)F)CCOCC4)(CC2)CC3)cc1 [Compound 2.152, (E)-4-(4-((2-(aminomethyl)-3-fluoroallyl)oxy)phenyl)-N-(4-(trifluoromethyl)tetrahydro-2H-pyran-4-yl)bicyclo[2.2.2]octane-1-carboxamide]
IC50: ≤ 10 nM

COCCO[C@H]1CC[C@H](NC(=O)C23CCC(c4ccc(OC/C(=C/F)CN)cc4)(CC2)CC3)CC1 [Compound 2.142, 4-(4-(((E)-2-(aminomethyl)-3-fluoroallyl)oxy)phenyl)-N-((1r,4r)-4-(2-methoxyethoxy)cyclohexyl)bicyclo [2.2.2]octane-1-carboxamide]
IC50: ≤ 10 nM

CO[C@H]1CC[C@H](NC(=O)C23CC(c4ccc(OC/C(=C/F)CN)cc4)(C2)C3)CC1 [Compound 3.04, 3-(4-(((E)-2-(aminomethyl)-3-fluoroallyl)oxy)phenyl)-N-((1r,4r)-4-methoxycyclohexyl)bicyclo[1.1.1] pentane-1-carboxamide]
IC50: ≤ 10 nM

CC(C)(C)O[C@H]1C[C@@H](NC(=O)C23CCC(c4ccc(OC/C(=C/F)CN)cc4)(CC2)CC3)C1 [Compound 2.149, 4-(4-(((E)-2-(aminomethyl)-3-fluoroallyl)oxy)phenyl)-N-((1s,3s)-3-(tert-butoxy)cyclobutyl)bicyclo[2.2.2] octane-1-carboxamide]
IC50: ≤ 10 nM
